In patent US20130195870A1, “ERBB3 Mutations In Cancer” (Genentech, Inc., priority 2011, published 2013):
Entries after “also recorded” stand apart in the source; their conditions may differ.

B1: MEHD7945A: a dual ERBB3/EGFR antibody that blocks ligand binding (binds domain III of EGFR and ERBB3) (antibody, V domains shown)
VH: EVQLVESGGGLVQPGGSLRLSCAASGFTLSGDWIHWVRQAPGKGLEWVGEISAAGGYTDYADSVKGRFTISADTSKNTAYLQMNSLRAEDTAVYYCARESRVSFEAAMDYWGQGTLVTVSS
VL: DIQMTQSPSSLSASVGDRVTITCRASQNIATDVAWYQQKPGKAPKLLIYSASFLYSGVPSRFSGSGSGTDFTLTISSLQPEDFATYYCQQSEPEPYTFGQGTKVEIKR

Columns and labels:
[1] = test system: BaF3 cells stably expressing ERBB3 mutants together with ERBB2; experiment: Survival and proliferation assay, IL-3 independent BaF3 cells; format: cell-based, mouse; settings: for blocking oncogenic signaling by ERBB3 mutants: summary statement
Description: BaF3 cells stably expressing the wild-type and mutant ERBB3 alone or together with EGFR or ERBB2, were washed twice in PBS and plated in 3×96-well plates in replicates of eight in complete RPMI medium without IL3. As needed cells were then treated with different concentration of NRG1 and anti-NRG1 antibody or different ERBB antibodies, tyrosine kinase or PI3K small molecule inhibitors to test their effects on survival or cell proliferation, where relevant as depicted in the figures. Viable cells at 0 h and 120 h were determined using Cell Titer-Glo luminescence cell viability kit (Promega Corp., WI) and Synergy 2 (Biotek Instrument, CA) luminescence plate reader. All the cell number values were normalized against Oh values. In order to assess proliferation of MCF10A stably expressing ERBB3-WT or mutants were washed twice in PBS and 5000 cells plated in 96-well plates in replicates of eight in triplicates serum-free media and allowed to proliferate for 5 days. Cell numbers were measure at day 0 and day 5 using the luminescence cell viability kit. […] Mean and statistical significance was determined using GraphPad V software (GraphPad, CA).

[2] = test system: BaF3 cells stably expressing ERBB3 mutants together with ERBB2; experiment: Colony formation assay (anchorage-independent growth), BaF3 cells; format: cell-based, mouse
Description: BaF3 cells stably expressing EGFR (2×10^5) or ERBB2 (50,000) along with ERBB3 wild-type or mutants, was mixed with 2 mls of IL3-free Methylcellulose ([…] Technologies, Canada) and plated on to 6 well plates and when indicated, cells were treated with different ERBB antibodies or tyrosine kinase or PI3K small molecule inhibitors before plating. Plates were then incubated at 37° C. for 2 weeks. For MCF10A colony formation, 20,000 MCF10A cells stably expressing ERBB3-WT or mutants alone or in combination with EGFR or ERBB2 were mixed with 0.35% agar in DMEM: F12 lacking serum, EGF, and NRG1 and plated on 0.5% base agar. Plates were then incubated at 37° C. for 3 weeks. The presence of colonies was assessed using Gel count imager (Oxford Optronix Ltd, UK). The number of colonies in each plate was quantified using Gel count software (Oxford Optronix Ltd, UK).

[3] = Q809R kinase domain ERBB3 mutant, at the tested dose
[4] = all the mutants tested except Q809R
[5] = all the ERBB3 mutants tested, co-expressed with ERBB2, no IL-3

Molecule | blocking cell proliferation ([1]; ERBB3 ECD mutants) | blocking cell proliferation [1, 3] | blocking cell proliferation [1, 4] | blocking oncogenic signaling by ERBB3 mutants ([1]; in vitro and in vivo, majority/most of the ERBB3 mutants tested) | blocking oncogenic signaling by ERBB3 mutants ([1]; kinase domain mutant Q809R) | blocking colony formation ([2]; ERBB3 ECD mutants) | blocking colony formation [2, 3] | blocking colony formation [2, 4] | blocking cell proliferation [1, 5] | blocking colony formation [2, 5]
CS(=O)(=O)N1CCN(Cc2cc3nc(-c4cccc5[nH]ncc45)nc(N4CCOCC4)c3s2)CC1 [GDC-0941] | very effective | only partially effective; also recorded: only modestly effective | effective | quite active | not as effective; also recorded: reduced efficacy | very effective | only partially effective; also recorded: only modestly effective | effective |  | 
CS(=O)(=O)CCNCc1ccc(-c2ccc3ncnc(Nc4ccc(OCc5cccc(F)c5)c(Cl)c4)c3c2)o1 [lapatinib] |  |  |  |  |  |  |  |  | quite effective | quite effective
B1 |  |  |  |  |  |  |  |  |  | effective
